Reference: patent EP3009422A1, “Photo-switchable sulfonylureas and their uses” (Ludwig-Maximilians-Universität München, priority 2014, dated 2016)

How the values were obtained:
[1] = test system: mouse islets; experiment: Calcium imaging (fMCI) of beta cell activity in intact mouse islets; format: cell-based; settings: for effect of high doses on the effects of JB253 on cytosolic Ca^2+: JB253-treated mouse islets, 405 nm, n = 4-6 recordings; for EC50: mouse islets, concentration-response, read-out: EC50 for cytosolic Ca^2+ rises
Method: Male and female CD1 and C57BL6 mice (8-20 weeks) were maintained in a specific pathogen-free facility under a 12h light-dark cycle with ad libitum access to water and food. Animals were euthanized using a schedule-1 method and pancreatic islets isolated by collagenase digestion. All procedures were regulated by the Home Office according to the Animals (Scientific Procedures) Act 1986 of the United Kingdom (PPL 70/7349), and study approval granted by the Animal Welfare and Ethical Review Body (AWERB) of Imperial College. No randomization was used for animal experimentation, since mice were only used as tissue donors.
(§1) Islets were loaded for 30-45 min in fluo2-AM (10 µM) or for 2-5 min with X-Rhod 1 (5 µM) diluted with a mixture of DMSO (0.01%, wt/vol) and pluronic acid (0.001%, wt/vol; all Invitrogen) in a bicarbonate buffer containing in mM: 120 NaCl, 4.8 KCl, 1.25 NaH2PO4, 24 NaHCO3, 2.5 CaCl2, 1.2 MgCl2 and 5 D-glucose. fMCI was performed using a Zeiss Axiovert M200 fitted with a Nipkow spinning-disk head (Yokogawa CSU-10) and a 10x/0.3NA objective adjusted for chromatic aberration (EC Plan-Neofluar, Zeiss). Pulsed excitation (frequency = 0.5 Hz; exposure = 263 ms) was delivered at 491 nm and emitted signals recorded at 500-550 nm with a back-illuminated 16-bit EM-CCD camera (ImageEM 9100-13; Hamamatsu). During recording, islets were maintained at 35-36 °C in the presence of 50 µM JB253 using a custom-manufactured perfusion and heating system (Digital Pixel). Drugs were introduced through the perfusion system at the indicated time points and concentrations. Violet light was delivered by a 405 ± 5 nm laser coupled to the side port of the microscope and configured to fill the back of the objective with light using an Optospot (Cairn Research). Blue light was delivered using 440 ± 5 nm and 491 ± 5 nm diode lasers controlled by a laser merge module (Spectral Applied Research) to allow simultaneous exposure and acquisition. For single islet targeting, a 473 ± 5 nm laser was coupled to a custom-manufactured dichroic array (Cairn Research), allowing user-directed steering of a collimated laser spot across the field of view. Signals were normalized using F/Fmin where F is fluorescence at a given timepoint and Fmin is minimum fluorescence.
(§2) Data distribution was determined using the D'Agostino omnibus test. Non-multifactorial pairwise comparisons were made using either the Student's t-test. Interactions between multiple treatments were assessed using one-way ANOVA followed by pairwise comparisons using Bonferroni's post-hoc test. Effect sizes in islets/cells are usually sufficiently large that multiple animals/independent replication is a more important determinant of power in studies requiring statistical comparison. Non-linear regression was used to calculate the EC50 of normalized and log-transformed concentration-response curves. For [3H]-glibenclamide displacement assays, data points were fitted to the Hill equation before calculation of the halfmax value. In all cases, analysis was performed using Graphpad Prism (Graphpad Software) and IgorPro, and experimental numbers reported as independent biological replicates. No animals or data were excluded from the analysis and results were considered significant at P<0.05.

[2] = test system: human islets; experiment: Calcium imaging in isolated human islets of Langerhans; format: cell-based; settings: JB253-treated human islets, 440 nm and 491 nm
Method: Human islets were isolated from deceased heart-beating donors (n = 3) at transplantation facilities in Pisa and Edmonton with the relevant national and local ethical permissions, including consent from next of kin where required, and cultured in RPMI supplemented with 5.5 mM D-glucose, 10% foetal calf serum (FCS), 100 U penicillin, 100 µg streptomycin and 0.25/µl fungizone (37 °C, 5% CO2). All studies involving human tissue were approved by the National Research Ethics Committee (NRES) London (Fulham), REC # 07/H0711/114.
as §1, with “For single islet targeting, a 473 ± 5 nm laser was coupled to a custom-manufactured dichroic array (Cairn Research), allowing user-directed steering of a collimated laser spot across the field of view.” left out

[3] = test system: isolated murine islets; experiment: Insulin secretion from isolated islets (static incubation, radioimmunoassay); format: cell-based, mouse; settings: diazoxide 250 µM, JB253 50 µM, illumination
Method: Insulin secretion was measured from 6 islets per well, incubated at 37 °C for 30 min in 0.5 ml of Krebs-HEPES-bicarbonate (KHB) solution (containing in mM: 130 NaCl, 3.6 KCl, 1.5 CaCl2, 0.5 MgSO4, 0.5 NaH2PO4, 2 NaHCO3, 10 HEPES, and 0.1 % (wt/vol) BSA, pH 7.4) containing the indicated glucose concentration and tolbutamide (100 µM), glimeperide (50 µM), diazoxide (250 µM) and JB253 (50 µM). Illumination (λ = 405 ± 20 nm and 485 ± 6 nm) was performed using a Fluostar Optima microplate reader (BMG Labtech) set to deliver 30 s of light every 2 min to the designated wells. Insulin concentrations were determined in duplicate using specific radioimmunoassay (EMD Millipore).

[4] = biological target: T1, SUR1 (Rattus norvegicus, UniProt Q09429); experiment: [3H]-glibenclamide displacement radioassay in SUR1-expressing HEK293t cells; format: binding; settings: displacement of [3H]-glibenclamide, SUR1-expressing HEK293t cells, n = 3
T1 construct: expressed in transfected cells; host or cells: HEK293t
Method: SUR1-expressing HEK293t cells were harvested and washed twice in assaying buffer containing in mM: 119 NaCl, 4.7 KCl, […], 1.2 KH2PO4, 1.2 MgSO4, 5 NaHCO3, and 20 HEPES, pH 7.4. In a 96-well plate, ∼200,000 cells/well were incubated for 50 min with [3H]-glibenclamide (PerkinElmer) and different concentrations of glimepiride (Sigma-Aldrich) or JB253. Incubation was terminated by rapid filtration through Whatman GF/C filters by means of a Brandel MWXR-96 TI harvester and filters were washed 3 times with ice-cold assay buffer. Radioactivity was counted 6 h after cell and filter lysis in 200 µL Rotiszint EcoPlus (Roth) using a Packard microbeta scintillation counter (PerkinElmer).
as §2

[5] = test system: Epac2A; experiment: Epac2-camps FRET imaging in HEK293t cells; format: cell-based; settings: HEK293t cells expressing full length Epac2-camps; JB253 as cis-JB253 (excitation 440 nm)
Method: For EPAC2 imaging, HEK293t were transfected with the full length construct for […] containing the cAMP and sulfonylurea binding domains (obtained from Prof. […] Excitation was delivered at 440 nm and emitted signals captured using […] filters. FRET was calculated as the ratio of Cerulean (CFP):Venus (YFP) fluorescence. Signals were normalized using R/R0 where R is the ratio at a given timepoint and R0 is the minimum ratio.

T1 sequence (Q09429 whole entry): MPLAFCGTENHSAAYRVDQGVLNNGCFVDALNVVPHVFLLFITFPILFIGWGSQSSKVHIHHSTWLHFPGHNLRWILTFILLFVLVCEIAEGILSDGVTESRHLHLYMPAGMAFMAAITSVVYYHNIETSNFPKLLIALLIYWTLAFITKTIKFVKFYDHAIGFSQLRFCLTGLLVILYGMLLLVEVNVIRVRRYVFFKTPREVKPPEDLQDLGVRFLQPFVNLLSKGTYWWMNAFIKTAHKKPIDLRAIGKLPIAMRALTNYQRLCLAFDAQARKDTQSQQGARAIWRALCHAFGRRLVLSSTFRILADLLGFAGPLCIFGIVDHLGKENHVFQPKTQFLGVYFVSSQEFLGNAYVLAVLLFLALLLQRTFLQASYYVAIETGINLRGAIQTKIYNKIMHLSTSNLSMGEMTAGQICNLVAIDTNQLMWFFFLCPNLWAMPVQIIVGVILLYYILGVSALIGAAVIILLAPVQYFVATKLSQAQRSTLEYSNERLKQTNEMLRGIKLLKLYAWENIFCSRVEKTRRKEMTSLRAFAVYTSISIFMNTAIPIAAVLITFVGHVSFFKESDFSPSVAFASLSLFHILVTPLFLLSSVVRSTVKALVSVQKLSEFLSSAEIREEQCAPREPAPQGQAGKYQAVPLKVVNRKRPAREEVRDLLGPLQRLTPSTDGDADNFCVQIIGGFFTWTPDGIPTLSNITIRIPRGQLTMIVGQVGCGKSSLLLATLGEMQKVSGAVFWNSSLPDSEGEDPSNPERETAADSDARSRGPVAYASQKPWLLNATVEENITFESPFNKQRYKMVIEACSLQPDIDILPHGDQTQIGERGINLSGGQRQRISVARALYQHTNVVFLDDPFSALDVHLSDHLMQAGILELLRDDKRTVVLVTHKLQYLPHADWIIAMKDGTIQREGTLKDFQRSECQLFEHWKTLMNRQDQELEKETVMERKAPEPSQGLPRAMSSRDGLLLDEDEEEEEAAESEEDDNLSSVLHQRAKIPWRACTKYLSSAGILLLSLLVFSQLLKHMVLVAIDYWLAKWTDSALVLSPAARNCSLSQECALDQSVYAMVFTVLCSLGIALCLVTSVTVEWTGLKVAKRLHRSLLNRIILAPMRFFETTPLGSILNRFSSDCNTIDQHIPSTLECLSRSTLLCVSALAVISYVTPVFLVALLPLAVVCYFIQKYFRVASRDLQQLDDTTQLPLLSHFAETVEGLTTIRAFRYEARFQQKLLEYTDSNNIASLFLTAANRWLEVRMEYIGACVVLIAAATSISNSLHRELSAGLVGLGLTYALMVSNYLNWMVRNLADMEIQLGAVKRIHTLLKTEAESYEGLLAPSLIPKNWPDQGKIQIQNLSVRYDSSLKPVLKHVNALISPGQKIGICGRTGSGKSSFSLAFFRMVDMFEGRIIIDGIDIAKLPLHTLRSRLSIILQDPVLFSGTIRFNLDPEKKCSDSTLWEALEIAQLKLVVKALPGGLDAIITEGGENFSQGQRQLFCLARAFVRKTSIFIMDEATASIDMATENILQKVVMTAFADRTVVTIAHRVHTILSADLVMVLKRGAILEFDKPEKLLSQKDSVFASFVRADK

Row | IC50 [4] [nM] | Structure (SMILES) | effect of high doses on the effects of JB253 on cytosolic Ca^2+ [1] | effect on JB253 effects on intracellular Ca^2+ [2] | effect on light-induced insulin secretion of JB253-treated islets [3] | IC50 ([4]; cis-state may relax thermally during washing) [nM] | EC50 [1] [nM] | ΔR/R0 (decrease in FRET) [5] [AU]
1 | – | CC1=NS(=O)(=O)c2cc(Cl)ccc2N1 [diazoxide, reference compound] | suppress | reversed | partially reversed | – | – | –
2 | – | CCN(CC)c1ccc(/N=N\c2ccc(S(=O)(=O)NC(=O)NC3CCCCC3)cc2)cc1 [cis-JB253] | – | – | – | 14800 | 675 | –
3 | – | CCCCNC(=O)NS(=O)(=O)c1ccc(C)cc1 [tolbutamide, reference compound] | augment | mimicked | – | – | – | –
4 | 8.3 | CCC1=C(C)CN(C(=O)NCCc2ccc(S(=O)(=O)NC(=O)N[C@H]3CC[C@H](C)CC3)cc2)C1=O [glimepiride, reference compound] | – | – | – | – | 399 | 0.052
